{"source": "patent US20240181087A1", "about": "“COMPOSITION FOR CONTRAST IMAGING OF CANCER” (ASTELLAS PHARMA INC., priority 2021, published 2024)", "key": {"RenCa cell": {"test_system": "RenCa cell", "assay": "near-infrared fluorescence imaging of liver, liver cancer-bearing mouse (RenCa, intravenous inoculation)", "type": "in vivo", "details": "tail vein 120 nmol/kg, after 10 minutes, laparotomy", "description": "Metastatic spontaneous renal cell carcinoma line from BALB/c mouse, RenCa cell (1×10^6 cells, purchased from CLS Cell Lines Service GmbH, Eppelheim, Germany) was intravenously inoculated into a mouse (BALB/cCrSlc, SPF, female, 7 weeks old) under anesthesia by subcutaneous administration of ketamine (75 mg/kg) and medetomidine (1 mg/kg), and the resultant mouse was bred for 18 days to cause liver cancer therein. The mouse was anesthetized by subcutaneous administration of ketamine (75 mg/kg) and medetomidine (1 mg/kg), and the compound III (120 nmol/kg weight) was administered through the tail vein. After 10 minutes, laparotomy was conducted to perform near-infrared fluorescence imaging with a near-infrared fluorescence imaging device (pde-neo, manufactured by Hamamatsu Photonics K.K.). Near-infrared fluorescence of the compound III from a liver normal tissue was strong, light emission of the compound III from a liver cancer site (framed site in the right image) was very weak, and thus, the normal site and the cancer site could be distinguished from each other depending on the light emission (FIG. 19)."}, "[1]": {"test_system": "human tongue cancer cells CAL27", "assay": "near-infrared fluorescence imaging after topical administration into tumor, human tongue cancer subcutaneous transplant model", "type": "in vivo", "details": "SCID mouse, 0.02 to 0.1 mL of 1 mg/mL, immediately after and 50 minutes after administration", "description": "A human cancer cell transplant model mouse was created as follows: • (Head and neck/tongue cancer) To immunodeficient SCID mice (weight: 17 g to 23 g), about 10^6 human tongue cancer cells CAL27 (purchased from American Type Culture Collection: ATCC) were subcutaneously administered, and the resultant mice were grown for 49 days to create tumor models. • (Brain cancer/neuroblastoma) To immunodeficient SCID mice (weight: 17 g to 23 g), about 10^6 human neuroblastoma cells SH-SY5Y (purchased from ATCC) were subcutaneously administered, and the resultant mice were grown for 90 days to create tumor models. • (Brain cancer/glioblastoma) To immunodeficient SCID mice (weight: 17 g to 23 g), about 10^6 human glioblastoma cells U-251MG (obtained from European Collection of Authenticated Cell Cultures) were subcutaneously administered, and the resultant mice were grown for 90 days to create tumor models.\nSubsequently, to the tumor of each of the mouse models, 0.02 to 0.1 mL of a saline containing the compound III (concentration of the compound III: 1 mg/mL) was topically administered, and fluorescence imaging was conducted transdermally with a near-infrared fluorescence camera (Fluobeam, manufactured by Fluoptics) (excitation wavelength: 780 nm, detection wavelength: 800 nm or more)."}, "[2]": {"test_system": "Human stomach cancer cell MKN45-Luc", "assay": "near-infrared fluorescence observation of abdominal cavity, peritoneal dissemination mouse model", "type": "in vivo", "details": "tail vein 40 nmol/kg, 10 minutes", "excerpt": "Human stomach cancer cell MKN45-Luc (5×10^6 cells, purchased from JCRB cell bank of National Institutes of Biomedical Innovation, Health and Nutrition) was intraperitoneally injected into a nude mouse (BALB/cSlc-nu, SPF, male, weight: about 20 g), and the resultant mouse was bred for 15 days to create a nude mouse having peritoneal dissemination. […] The near-infrared fluorescence was not emitted from the abdominal cavity of the normal mouse (FIG. 22)."}, "B16F1 (skin cancer cell)": {"test_system": "B16F1 (skin cancer cell)", "assay": "near-infrared fluorescence imaging after administration into tumor, B16F1 skin cancer model", "type": "in vivo, mouse", "details": "0.02 to 0.05 mL of 1 mg/mL saline, transdermal imaging", "excerpt": "A syngeneic tumor transplanted mouse model was created as follows referring to “Gan-Shikkan Model no Sakusei to Riyo (Cancer-Creation and Use of Disease Model)” (Takuro Nakamura, LIC, 2012). • (Breast Cancer) A tumor model was created by breeding a normal Balb/c mouse (weight: about 20 g to 30 g) for 14 days with mouse tumor cell 4T1 subcutaneously administered thereto. • (Colorectal Cancer) A tumor model was created by breeding a normal Balb/c mouse (weight: about 20 g to 30 g) for 14 days with CT26 (colorectal cancer cell) subcutaneously administered thereto. • (Skin Cancer) A tumor model was created by breeding a C57BL/6 mouse (weight: about 15 g to 20 g) for 14 days with B16F1 (skin cancer cell) subcutaneously administered thereto.\nSubsequently, to the tumor of each of the model mice, 0.02 to 0.05 mL of a saline containing the compound III or ICG (concentration of the compound III or ICG: 1 mg/mL) was administered, and fluorescence imaging was performed transdermally with a near-infrared fluorescence camera (Fluobeam, manufactured by Fluoptics, http://www.solve-net.com/info/wp-content/uploads/downloads/2013/12/Fluobeam.pdf) (excitation wavelength: 780 nm, detection wavelength: 800 nm or more)."}, "[3]": {"test_system": "renal epithelial cell carcinoma", "assay": "near-infrared fluorescence imaging of kidney with tumor/pretumor induced with ferric nitrilotriacetate", "type": "in vivo, rat", "description": "A kidney cancer […] model was created based on a method reported by Okada et al., (Okada et al., Jpn. Arch. Int. Med., 1982, 29, 485). Specifically, rats (280 g to 320 g) were bred after continuously intraperitoneally administering ferric nitrilotriacetate to the rats for 6 months, and thus, renal epithelial cell carcinoma was induced therein.\nEach of the rats was anesthetized by intraperitoneally administering pentobarbital sodium salt, a saline containing the compound III was administered to the tail vein (dose of the compound: 0.75 mg/kg of the rat), and 30 minutes, 3 hours, or 24 hours after the administration, the rat was subjected to laparotomy to perform near-infrared fluorescence imaging of the kidney with a near-infrared fluorescence imaging device (PDE, manufactured by Hamamatsu Photonics K.K.) (FIG. 11). Besides, the kidney having been subjected to the near-infrared fluorescence imaging was excised from the body, and the cross section was subjected to near-infrared fluorescence imaging (FIG. 12). Three rats each were used at each of the above-described timings after the administration, and nine rats were used in total.\nBesides, a specimen for microscopic observation was created through ethanol immobilization, section creation, hematoxylin/eosin staining for performing observation in bright field and near-infrared fluorescence (FIG. 13). […] Thus, tumor embedded in surrounding tissues could be detected."}, "[4]": {"test_system": "Human esophageal cancer cell KYSE850", "assay": "near-infrared fluorescence observation, human esophageal cancer subcutaneous transplant mouse model", "type": "in vivo", "details": "nude mouse, tail vein 120 nmol/kg, 30 seconds after administration", "excerpt": "Human esophageal cancer cell KYSE850 was subcutaneously transplanted into the neck of a nude mouse (BALB/cSlc-nu, SPF, male, 5 weeks old), and the resultant mouse was bred for 18 days to create a mouse having esophageal cancer grown therein. The human esophageal cancer cell KYSE850 was purchased from JCRB cell bank of National Institutes of Biomedical Innovation, Health and Nutrition (Registration Number: JCRB1422, establisher: Graduate School of Pharmaceutical Sciences, Kyoto University, Department of Nanobio Drug Discovery, Yutaka Shimada).\nThe near-infrared fluorescence from a cancer tissue (circled site) was strong, and that from a normal tissue was weak (FIG. 25). It is noted that fluorescence in an elliptical frame corresponds to near-infrared fluorescence from the right and left kidneys."}, "[5]": {"details": "MKN45-Luc peritoneal dissemination nude mouse"}, "[6]": {"details": "ferric nitrilotriacetate rat, tail vein 0.75 mg/kg, excised kidney"}}, "data": [{"smiles": "COC1=C(/C=C/C2=[N+](CCC(=O)NCCCO[C@H]3[C@H]4O[C@H]5[C@H](O)[C@@H](O)[C@@H](O[C@H]6[C@H](O)[C@@H](O)[C@@H](O[C@H]7[C@H](O)[C@@H](O)[C@@H](O[C@H]8[C@H](O)[C@@H](O)[C@@H](O[C@H]9[C@H](O)[C@@H](O)[C@@H](O[C@H]%10[C@H](O)[C@@H](O)[C@@H](O[C@@H]([C@@H]3O)[C@@H](CO)O4)O[C@@H]%10CO)O[C@@H]9CO)O[C@@H]8CO)O[C@@H]7CO)O[C@@H]6CO)O[C@@H]5CO)c3ccc4ccccc4c3C2(C)C)CCC/C1=C\\C=C1\\N(CCC(=O)NCCCO[C@H]2[C@H]3O[C@H]4[C@H](O)[C@@H](O)[C@@H](O[C@H]5[C@H](O)[C@@H](O)[C@@H](O[C@H]6[C@H](O)[C@@H](O)[C@@H](O[C@H]7[C@H](O)[C@@H](O)[C@@H](O[C@H]8[C@H](O)[C@@H](O)[C@@H](O[C@H]9[C@H](O)[C@@H](O)[C@@H](O[C@@H]([C@@H]2O)[C@@H](CO)O3)O[C@@H]9CO)O[C@@H]8CO)O[C@@H]7CO)O[C@@H]6CO)O[C@@H]5CO)O[C@@H]4CO)c2ccc3ccccc3c2C1(C)C.[Cl-]", "note": "[compound III, 3-(3-{[3-(cyclomaltoheptaose-21-O-yl)propyl]amino}-3-oxopropyl)-2-{(1E)-2-[(3E)-3-{(2E)-2-[3-(3-{[3-(cyclomaltoheptaose-21-O-yl)propyl]amino}-3-oxopropyl)-1,1-dimethyl-1,3-dihydro-2H-benzo[e]indol-2-ylidene]ethylidene}-2-methoxycyclohexa-1-en-1-yl]ethene-1-yl}-1,1-dimethyl-1H-benzo[e]indol-3-ium chloride]", "values": [{"measurement": "light emission from liver cancer site", "setting": "RenCa cell", "value": "very weak"}, {"measurement": "near-infrared fluorescence from liver normal tissue", "setting": "RenCa cell", "value": "strong"}, {"measurement": "retention inside the tumor (fluorescence imaging)", "setting": "[1]", "value": "retained inside the tumor"}, {"measurement": "near-infrared fluorescence of dissemination present in the entire abdominal cavity", "setting": "[2]; [5]", "value": "emitted the near-infrared fluorescence"}, {"measurement": "near-infrared fluorescence of visually recognizable cancer tissue (nearly necrotic)", "setting": "[2]; [5]", "value": "did not emit the near-infrared fluorescence"}, {"measurement": "near-infrared fluorescence from abdominal cavity of normal mouse", "setting": "[2]; normal nude mouse", "value": "not emitted"}, {"measurement": "retention in tumor (fluorescence imaging)", "setting": "B16F1 (skin cancer cell)", "value": "retained in the tumor"}, {"measurement": "near-infrared fluorescence micro image of kidney tissue section", "setting": "[3]; ferric nitrilotriacetate rat, near-infrared fluorescence microscope, section 3 hours after administration", "value": "strong near-infrared fluorescence was found locally in a non-neoplastic degeneration site, a pre-neoplastic degeneration site, and a neoplastic degeneration site"}, {"measurement": "near-infrared fluorescence macro image of the surface of the kidney having tumor and pretumor", "setting": "[3]; ferric nitrilotriacetate rat, tail vein 0.75 mg/kg, 30 minutes, 3 hours or 24 hours after administration", "value": "strong fluorescence was locally found in a dotted manner"}, {"measurement": "near-infrared fluorescence image of kidney cross section: dotted fluorescence in renal medulla", "setting": "[3]; [6]", "value": "not observed"}, {"measurement": "near-infrared fluorescence image of kidney cross section: renal cortex", "setting": "[3]; [6]", "value": "a site exhibiting strong fluorescence in a dotted manner was observed"}, {"measurement": "aspect of dotted strong fluorescence in normal kidney", "setting": "[3]; normal rat, tail vein 0.75 mg/kg", "value": "not observed"}, {"measurement": "near-infrared fluorescence from esophageal cancer tissue", "setting": "[4]", "value": "strong"}, {"measurement": "near-infrared fluorescence from normal tissue", "setting": "[4]", "value": "weak"}]}]}
